Results: a melting point compilation (Tetko et al.)

Row | melting point | SMILES
1 | 16 °C | COC1CCC=CO1 (stereo not drawn)
2 | 140 °C | NCCCC(N)C(=O)O (stereo not drawn)
3 | 283 to 284 °C | CC(NC(CCCNC(=N)N)C(=O)O)C(=O)O (single isomer, unassigned; (+))
4 | 86 °C | Cc1cc(I)ccc1N
5 | 220 to 223 °C | O=C1CCC(c2ccc(NC(=O)CCl)cc2)=NN1
6 | 180 to 183 °C | CC1CC(=O)Nc2ccccc2N1 (stereo not drawn)
7 | 109 °C | Fc1ccc(C(Br)(c2ccc(F)cc2)c2ccc(F)cc2)cc1
8 | 290 °C | CCn1cc(C(=O)O)c(=O)c2ccc(-c3ccncc3)cc21
9 | 72 °C | CN(C)c1ccccc1C(=O)O
10 | 82 to 87 °C | CC(C)(C)c1cc(C=O)cc(C(C)(C)C)c1
11 | 48 °C | Fc1cc(Br)ccc1I
12 | 163 °C | C=C1C(=O)C23C4CC5C(C)(C)CCCC56COC(CC1C2OC(C)(C)O4)C63 (stereo not drawn)
13 | 82 to 88 °C | CC(C)NC(=O)CN1CCNCC1
14 | 133 to 135 °C | CCCC(C(N)=O)c1ccc(O)c(O)c1 (stereo not drawn)
15 | 74 to 78 °C | Cc1ccc2ccc(Cl)cc2n1
16 | -31.1 °C | CC1=CC=C(C(C)C)CC1
17 | 198 to 199 °C | O=[N+]([O-])c1ccc(NN=CC2=C(C#Cc3ccccc3)CCCC2)c([N+](=O)[O-])c1
18 | 253 °C | N#C/C(=C/c1cccnc1)c1nc(-c2ccc(Cl)cc2)cs1
19 | 110 to 113 °C | CC(=O)O[C@@H]1[C@@H](OC(C)=O)[C@H](C)O[C@@H](OCc2ccccc2)[C@@H]1OC(C)=O
20 | 81 °C | CCc1ccc(C(c2ccc(C(c3ccc(CC)o3)c3ccc(CC)o3)cc2)c2ccc(CC)o2)o1
21 | 37 °C | O=C(CCCCl)c1ccc(Br)cc1
22 | 79 to 81 °C | O=C(CCl)Nc1ccc(F)cc1F
23 | 185 °C | COc1cc(-c2coc3cc(O)c(OC)c(O)c3c2=O)cc(O)c1OC
24 | 115 °C | CC(=O)CCc1cc2c(c([N+](=O)[O-])c1)CCC(C)N2C(=O)c1ccc([N+](=O)[O-])cc1 (stereo not drawn)

Row | melting point | SMILES
25 | 66 °C | COC(=O)c1ccnnc1
26 | 190 °C | CCCc1nn(C)c2c(=O)nc(-c3cc(S(=O)(=O)N4CCN(C)CC4)ccc3OCC)[nH]c12
27 | 45 to 46 °C | CC(=Cc1ccccc1)C(=O)Cl
28 | 82 to 84 °C | Ic1ccc(Cn2cncn2)cc1
29 | 176 to 178 °C | O=C(Oc1ccccc1)c1ccc(O)cc1
30 | 136 °C | O=P(N1CC1)(N1CC1)N(N=Cc1ccc(Cl)cc1)c1ccccc1
31 | 107 °C | Cc1ccc(O)c(C(O)c2ccc(Br)cc2)c1 (stereo not drawn)
32 | 96 to 97 °C | COc1cc(C)c2c(c1)CCC(=Cc1ccccc1)C2=O
33 | 57 to 59 °C | Nc1ccc(C2SCCS2)cc1
34 | 148 to 150 °C | COc1ccc2[nH]cc(CC(=O)O)c2c1
35 | 55 °C | OC1C(Cl)(Cl)CCCC1(Cl)Cl
36 | 146 °C | C/C(CC(C)c1ccc(C)cc1)=N\NC(N)=O (stereo not drawn)
37 | 201 °C | O=C(Nc1ccccn1)c1cc([N+](=O)[O-])cc([N+](=O)[O-])c1
38 | 33 °C | CC(=O)c1ccc(C)c(F)c1
39 | 100 °C | COc1cc(N)ncn1
40 | 158 °C | O=C(O)C(F)=Cc1ccccc1
41 | 92 °C | O=[N+]([O-])c1ccc(Cc2ccccn2)c([N+](=O)[O-])c1
42 | 37.5 °C | c1ccc(CNc2ccccc2)cc1
43 | 121 to 126 °C | O=C(O)c1c(F)cccc1I
44 | 139 °C | Cc1c(C)c(C)c2c(c1C)CC2
45 | 275 °C | CC(C)(C)c1nc(N)nc(O)n1
46 | 119 °C | O=C(Cl)c1ccc2nccnc2c1
47 | 335 °C | COc1ccc([N+](=O)[O-])cc1NN=C1C(=O)C(C(=O)Nc2cccc([N+](=O)[O-])c2)=Cc2ccccc21
48 | 178 °C | O=C(c1ccc([N+](=O)[O-])cc1)c1noc(-c2ccc(Br)cc2)c1S(=O)(=O)c1ccccc1

Row | melting point | SMILES
49 | 112 to 113 °C | COC(=O)c1sccc1Oc1ccc(C(F)(F)F)cc1[N+](=O)[O-]
50 | 76 to 78 °C | CC(C)(C)c1ccc(S(=O)(=O)NCCBr)cc1
51 | 59 to 61 °C | Cn1nc(CCl)cc1-c1ccccc1
52 | 134 °C | OCCN(CCO)c1ccc(N=Nc2ccccc2)cc1
53 | 152 to 159 °C | CCOC(=O)C1=C(C)OC(N)=C(C#N)C1c1ccc(N2CCOCC2)cc1 (stereo not drawn)
54 | 162 °C | COc1cc(OC)nc(NC(=O)NS(=O)(=O)Nc2ccccc2C(=O)C2CC2)n1
55 | 64.5 °C | CC=C(C)C(=O)O
56 | 36 °C | O=C(Cl)C=Cc1ccccc1
57 | 75 °C | c1ccc(C2=NOC(c3ccccc3)C2)cc1 (stereo not drawn)
58 | 88 °C | CC(=O)c1cc(C)c(Br)cc1O
59 | 166 to 169 °C | NC(=O)c1c(Cl)cc(C(F)(F)F)cc1Cl
60 | 258 °C | CCc1c(O)c(=O)ccn1N1CCOCC1
61 | 176 °C | CC(=O)Nc1ccc(C)c(NS(=O)(=O)C(F)(F)F)c1
62 | 102 °C | COc1ccc(C#N)c2ccccc12
63 | 108 to 109 °C | CC(=O)Oc1c(C)cc(O)c(C)c1C
64 | 35 to 38 °C | COC(=O)c1cscc1N
65 | 184 to 189 °C | NC(=O)C1(C(=O)O)CC1
66 | 278 °C | Oc1ccnc(O)c1
67 | 146 °C | CC(=C(CCOC(=O)c1ccccc1)SSC(CCOC(=O)c1ccccc1)=C(C)N(C=O)Cc1cnc(C)nc1N)N(C=O)Cc1cnc(C)nc1N
68 | -57 °C | CC(C)c1ccccc1C(C)C
69 | 77 °C | CC(=O)Oc1nn(-c2ccc(Br)cc2)cc1Br
70 | 161 °C | CC(=O)Nc1cc(C(F)(F)F)cc(C(F)(F)F)c1
71 | -5.9 °C | CCCOC(=O)CCC(=O)OCCC
72 | 83 to 85 °C | Cc1ccc(O)c(C(=O)c2ccccc2)c1

Row | melting point | SMILES
73 | 158 to 162 °C | CCn1nc(C)c(Br)c1C(=O)O
74 | 198 to 202 °C | N#Cc1ccc(N2CCC(C(=O)NN)CC2)cc1
75 | 105 °C | CN(CCCN1c2ccccc2CCc2ccccc21)CC(=O)c1ccc(Cl)cc1
76 | 210 to 212 °C | Cc1ccc(O)c(C)n1
77 | 101 to 102 °C | c1ccc(C/C(=N\Nc2ccccc2)c2cccc3ccccc23)cc1
78 | 115 °C | Cc1ccc2[nH]c(C)cc2c1
79 | 166 °C | O=C(Cc1ccccc1[N+](=O)[O-])c1ccccc1[N+](=O)[O-]
80 | 29 °C | CCC(=O)CC#N
81 | 49 °C | c1ccc(Cn2cncn2)cc1
82 | 59 °C | COC(=O)C(O)C(O)C(=O)OC (stereo not drawn)
83 | 80 to 82 °C | O=S(=O)(Cl)c1ccc(-c2cnco2)s1
84 | 39 °C | CCCCCCCCCCCCN1CC(C(=O)O)CC1=O (stereo not drawn)
85 | 66 to 68 °C | Nc1c(Cl)cc(C(F)(F)F)cc1[N+](=O)[O-]
86 | 203 to 204 °C | COc1ccc(C2Nn3c(nnc3-c3ccccc3OC)S2)cc1 (stereo not drawn)
87 | 140 to 143 °C | NNC(=O)c1ccccc1-c1ccccc1
88 | 111 °C | COC1OC(CNC(=O)N(CCCl)N=O)C(O)C(O)C1O (stereo not drawn)
89 | < 20 °C | Brc1ccc(Oc2ccccc2Br)cc1Br
90 | < 25 °C | FC(F)(F)CCBr
91 | 84 °C | N#Cc1cc(F)ccc1Cl
92 | 172 °C | CC(CCC(=O)O)C1CCC2=C3CCC4CC(O)CCC4(C)C3CC(O)C21C (stereo not drawn)
93 | 73 °C | COc1cccc(Nc2ccccc2)c1
94 | 352 °C | O=C(Nc1ccc(C=Cc2ccc(NC(=O)c3ccccc3)cc2)cc1)c1ccccc1
95 | 235 to 237 °C | O=C(Nc1ccc(I)cc1)C(C(F)(F)F)C(F)(F)F
96 | 72 to 74 °C | CCOC(CN1C(=O)c2ccccc2C1=O)OCC

Row | melting point | SMILES
97 | 64 °C | CC(C)(C)[Si](C)(C)ON
98 | 77 °C | O=C1CC(c2ccccc2)Oc2ccccc21 (stereo not drawn)
99 | 12.1 °C | COC(=O)c1ccncc1
100 | -3 °C | Cc1c(O)cc2c(c1C)OC(C)(CCCC(C)CCCC(C)CCCC(C)C)CC2 (stereo not drawn)
101 | -24 °C | CCc1ccc(Cc2ccccc2)cc1
102 | 124 °C | O=[N+]([O-])c1cccc(C=NO)c1
103 | 103 °C | CCN(CC)CCOc1ccc(C(O)(Cc2ccc(Cl)cc2)c2ccc(C)cc2)cc1 (stereo not drawn)
104 | 134 to 137 °C | Cc1nc2ccc(I)cc2s1
105 | 71 to 73 °C | FC(F)(F)c1ccc(-n2ccnc2)cc1
106 | 147 °C | COc1ccc(C(=O)c2cc(OC)c(OC)cc2[N+](=O)[O-])cc1
107 | 172 °C | O=c1[nH]c(=O)n(C2CCCO2)cc1F (stereo not drawn)
108 | 161 to 163 °C | O=C(O)c1cccc(N2CCOCC2)c1
109 | 0 °C | CCCCCCCCSCCO
110 | 176 to 178 °C | O=P(c1ccc(Cl)cc1)(c1ccc(Cl)cc1)c1ccc(Cl)cc1
111 | 278 °C | CC1C(=O)C23C(O)CC4C(C)(C)CCC(O)C4(CO)C2C(O)CC1C3O (stereo not drawn)
112 | 82 °C | CC(C)(C)NCC(O)COc1cc(Cl)ccc1Cl (stereo not drawn)
113 | 18 °C | CN(C)CCN(C)CCN(C)C
114 | 80.5 °C | Cc1cc(C)c(O)c(C)c1C
115 | 235 °C | Cn1c(=O)c(C2=NNC(=O)C2=CNc2ccccn2)c(O)c2ccccc21
116 | -58 °C | CCCCCCCCC(C)CC (stereo not drawn)
117 | 182 °C | COc1ccccc1C(=O)N(NC(=O)c1ccccc1)C(C)(C)C

Row | SMILES | melting point
118 | CC(C)=CC1C(C(=O)OCc2coc(Cc3ccccc3)c2)C1(C)C (stereo not drawn) | 56.5 °C
119 | O=C(O)C1OC(OCC(Cl)(Cl)Cl)C(O)C(O)C1O (stereo not drawn) | 142 °C
120 | CN1CCN(Cc2ccc(C#N)cc2)CC1 | 69 to 71 °C
121 | CC(N)P(=O)(O)O (racemic) | 283 to 284 °C
122 | Cc1ccc(N2CCNCC2)cc1 | 29 to 34 °C
123 | CC1C2Cc3ccc(O)cc3C1(C)CCN2CCc1ccccc1 (stereo not drawn) | 181 °C
124 | C=CC12CN(C)C3C4COC(CC41)C1(C(=O)Nc4ccccc41)C32 (stereo not drawn) | 178 °C
125 | CCCOC(N)=O | 60 °C
126 | FCCl | -133 °C
127 | c1ccc(CC2CCNCC2)cc1 | 16.8 °C
128 | CC(C)OC(N)=O | 93 °C
